According to patent US20070276032A1, “Use of 8-Prenylnaringenin for Hormone Replacement Therapy” (priority 2003, published 2007):
Several values for one entry are separate records, joined by “and”; a condition that tells them apart may be missing. Equal values may be shown once.

Key:
ovariectomized rats [1] = test: Ex vivo BMD (pQCT) of proximal tibia, 2S(−) 8-PN in ovariectomized rats (Example 3); set-up: species or system Sprague-Dawley rats; settings: animal study with synthetic relatively pure preparation
Description: (§1) The aim of the study was to examine bone and uterine effects of a 4-week treatment with 2S(−) 8-Prenylnaringenin (8-PN) in 3-month-old ovariectomized rats. […] At the end of the study, uterine weight and ex vivo bone mineral density (BMD) of tibia were measured.
(§2) A total of 30 female 13-14-week-old Sprague-Dawley rats were used in the study. The animals were randomized into 5 groups, with 6 rats/group. Group 1 was sham-operated (SHAM) and groups 2-5 were ovariectomized (OVX).
(§3) Treatments with the vehicle or test substance started on the day following operation. […] The animals were sacrificed one day after the last dosing. At the end of the study, left tibiae were excised for ex vivo BMD measurement (pQCT) at proximal tibia and uteri were excised for the determination of absolute and relative weights. In addition, samples for the determination of 2S(−)8-Prenylnaringenin concentration were taken from all dosing solutions on the day when they were prepared and on the last day of use. The data of body weights, relative uterine weights and BMD were analyzed with one-way analysis of variance.
Bone mineral density measurement was carried out by pQCT (XCT-960A, Stratec, Germany). The bone specimens were thawed before measurement. Six 1 mm-thick sections of the proximal tibia (2 mm below the epiphyseal growth plate) were scanned at 0.5 mm intervals using a voxel size of 0.148 mm. Total and trabecular BMD (mg/cm^3) were measured. After bone densitometry, the specimens were wrapped back to saline saturated gauzes and stored at −20° C.

ovariectomized rats [2] = test: Relative uterine weight, 2S(−) 8-PN in ovariectomized rats (Example 3); assay type: in vivo, Sprague-Dawley rats
Description: as §1, §2, §3
Relative uterine weight was calculated as percentage of body weight

ovariectomized rats [3] = test: Trabecular density of proximal tibia, 8-PN racemic, 2S(−) 8-PN and estradiol hemihydrate in ovariectomized rats (Example 4); assay type: in vivo, Sprague-Dawley rats; settings: OVX rats; s.c. 28 days; 20 mg/kg/d in HP-β-CD
Description: (§4) The aim of the study was to directly compare the effects of Prenylnaringenin (racemate) and 2S(−) 8-Prenylnaringenin to the effects of estradiol hemihydrate on bone mineral density and uterine weight on 3-month-old ovariectomized rats using identical formulations. In addition, the effects of estradiolhemihydrate in two vehicles (oily, aqueous) were examined for influence of formulations. The substances were administered subcutaneously(s.c.) seven days a week beginning the day after ovariectomy. At the end of the study, uterine weight and bone mineral density (BMD) of tibia were measured.
(§5) Forty-one female Sprague-Dawley rats, 12-14 weeks of age were randomized into six groups, 6-8 animals in each. Five groups were ovariectomized (OVX) and one group was sham-operated (SHAM). Treatments started on the day following operation and continued for 28 days. The animals were treated s.c. once a day seven times a week as follows. Group 1 (SHAM vehicle group) and group 2 (OVX vehicle group) were given the vehicle 30% hydroxypropyl-β-cyclodextrin (HP-β-CD). Groups 3 and 4 were administered 4 μg/kg/d of estradiol hemihydrate in vehicle benzyl benzoate/ricinus oil (B/R) and in vehicle HP-β-CD, respectively. Groups 5 and 6 were given 20 mg/kg/d of 2S(−)8-Prenylnaringenin and racemic 8-Prenylnaringenin, respectively, both in vehicle HP-β-CD. At the end of the study, left tibiae were excised for the ex vivo BMD […] were taken from all dosing solutions on the first and last day of use.
(§6) Vehicle 1 (used in the groups 1 and 2): 30% hydroxypropyl-β-cyclodextrin and 0.3% NaCl (w/v), 5% ethanol (v/v) in Aqua sterilisata, pH 7.4.
(§7) Vehicle 2 (used when preparing dosing solutions of the groups 4, 5 and 6): 30% hydroxypropyl-β-cyclodextrin and 0.3% NaCl (w/v) in Aqua sterilisata, pH 7.4.
(§8) Vehicle 3 (used when preparing a dosing solution of the group 3): benzyl benzoate/ricinus oil (B/R) 1+4, v/v.

ovariectomized rats [4] = test: Relative uterus weight, 8-PN racemic, 2S(−) 8-PN and estradiol hemihydrate in ovariectomized rats (Example 4); assay type: in vivo, Sprague-Dawley rats; settings: OVX rats
Description: as §4, §5, §6, §7, §8

[5] = Body weight, 8-PN racemic, 2S(−) 8-PN and estradiol hemihydrate in ovariectomized rats (Example 4); assay type: in vivo, Sprague-Dawley rats; settings: OVX rats; s.c. once a day, 28 days; 20 mg/kg/d in HP-β-CD
Description: as §4, §5, §6, §7, §8

ERE-Luc = test: Estrogenic activity in the estrogen reporter mouse ERE-Luc model, luciferase activity in organs (Example 5); assay type: in vivo, mice
Description: In order to avoid experimental noise male animals were used.
Fourtyfive heterozygous male ERE-Luc mice of two months of age were fed with soy-free diet for two weeks before assigning them to each experimental group then all the mice were injected intraperitoneally (i.p.) with 250 μl of an oily solution containing the following compounds: • 1. Experimental group 1: vehicle • 2. Experimental group 2: 17β-estradiol at 1.5 μg/kg • 3. Experimental group 3: 2S(−)-8-PN at 30 mg/kg • 4. […] Experimental group 5: genistein at 30 mg/kg.
The treatment was carried out in experimental groups of three mice each and repeated three times (therefore numbers reflect the average of […] determinations on a total of 9 animals).
Six hours after the injection, mice were sacrificed by cervical dislocation and organs were dissected and frozen on dry ice. The following organs were analyzed for lucifererase activity by enzymatic assay: prostate, liver, bone, brain.
Data represent means ±standard deviation of N=9 animals per group.
Analysis of variance (ANOVA) for overall comparison was followed by Tukey test for paired comparisons. All statistical procedures were carried out with Systat and SAS (*P<0.05; **P<0.01).

[6] = reported; cited from earlier work
[7] = at the bone loss protective dose; Miyamoto et al 1998; cited from earlier work
[8] = s.c. 28 days, 20 mg/kg/d in HP-β-CD, calculated as percentage of body weight

Compound: CC(C)=CCc1c(O)cc(O)c2c1OC(c1ccc(O)cc1)CC2=O (racemic) [8-Prenylnaringenin, 5,7-Dihydroxy-2-(4-hydroxyphenyl)-8-(3-methylbut-2-enyl)-chroman-4-on]
- effect on bone loss (ovariectomized rats [1]): prevents bone loss in a dose dependent manner
- effect on uterus growth and endometrial stimulation (ovariectomized rats [2]; animal study with synthetic relatively pure preparation): only a minimal and dose independent effect on uterus growth and endometrial stimulation
- effect on uterus proliferation relative to that of estradiol (ovariectomized rats [2]; doses equi-effective on protection of bone loss): less than ⅕ and 1/10
- estrogenic effect on the uterus, equivalent oral estradiol dose (ovariectomized rats [2]; extended to women treated with a bone protective dose): 0.1 to 0.2 mg/day
- Trabecular density at left proximal tibia, Mean (ovariectomized rats [3]): 351 mg/cm3
- Trabecular density at left proximal tibia, Median (ovariectomized rats [3]): 351 mg/cm3
- effect on the uterus and body weight compared with estradiol in the same vehicle (HP-β-CD) (ovariectomized rats [4]; 20 mg/kg/d vs estradiol 4 μg/kg/d, same bone effective dose): much lower effect on the uterus and body weight than estradiol at the same bone effective dose
- Relative uterus weight, Mean (ovariectomized rats [4]; [8]): 0.066
- Relative uterus weight, Median (ovariectomized rats [4]; [8]): 0.065
- Body weight at The end (bw4b) [5]: 289(8) g
- The change in Body weight (bw4b-bw0) [5]: 27(2) g
- estrogenic effect in bone and prostate tissue relative to estradiol (ERE-Luc; estimated at dosages leading to the same liver estrogenicity): twofold higher estrogenic effect in bone and prostate tissue than estradiol
- Luciferase activity, Prostate (ERE-Luc; male ERE-Luc mice, i.p. 30 mg/kg, six hours after the injection, controls 0.5): 0.9 ** arbitrary units
- estrogenic activity relative to genistein [6]: at least one order of magnitude higher than that of the isoflavone genistein
- effect on uterus growth [7]: significant effect on uterus growth at the bone loss protective dose
